The target in the assay is T1, Arginase-1 (Homo sapiens, UniProt P05089).
T1 sequence (P05089 whole entry): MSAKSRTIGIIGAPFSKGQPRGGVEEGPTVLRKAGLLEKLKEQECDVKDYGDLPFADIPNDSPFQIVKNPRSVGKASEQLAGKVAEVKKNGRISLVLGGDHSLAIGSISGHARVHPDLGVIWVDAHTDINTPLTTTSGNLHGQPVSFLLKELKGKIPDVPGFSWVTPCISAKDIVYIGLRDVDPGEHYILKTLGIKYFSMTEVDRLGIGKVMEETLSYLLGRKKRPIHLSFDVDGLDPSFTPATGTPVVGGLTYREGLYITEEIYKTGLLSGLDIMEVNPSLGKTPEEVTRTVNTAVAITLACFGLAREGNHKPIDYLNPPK
The experiment in a line: Inhibition of human recombinant full length arginase 1 expressed in Escherichia coli BL21(DE3) by fixed point assay.

Take `Nc1ncc(CCCC(N)C(=O)O)[nH]1` (stereo unspecified) [2-amino-5-(2-aminoimidazol-4-yl)pentanoic acid]: the Ki is more than 800 mM.

Values taken from BindingDB's records for doi:10.1021/jm100306a (University of Pennsylvania, 2010).
